One data set has as its system female CDF1 mice. Kind of data set: Toxicity test against mouse extension reflex (peripheral nerve impairment). The format is in vivo. Particulars: 30 mg/kg in terms of paclitaxel, tail vein, 5 consecutive days, hind limbs. The procedure: Micellar preparation 10 or paclitaxel alone was administered to female CDF1 mice through their tail veins for consecutive 5 days to observe the extension reflex of their hind limbs providing an indication of peripheral nerve impairment due to paclitaxel. Each agent was prepared as described in Test Example 1, and used directly, or after dilution with saline before use. The dosages used were expressed in terms of paclitaxel.

Data set [1] is described as follows: Transition of paclitaxel concentrations in the rat plasma. The settings on record: intravenous, 5 mg/kg paclitaxel equivalent, tail vein, male SD rats. The data set is classed as in vivo. The method, then: Micellar preparation 10 from Example 9 was diluted with normal saline solution to make an aqueous solution having a concentration of 2.5 mg/mL in terms of paclitaxel. Paclitaxel alone was dissolved in ethanol, to which Cremophor (Sigma) was then added in the same amount as ethanol to prepare in such a way that the concentration of paclitaxel was adjusted to 25 mg/mL, followed by dilution to 2.5 mg/mL with normal saline solution immediately before administration. Micellar preparation 10 or paclitaxel alone was administered in an amount equivalent to paclitaxel 5 mg/kg to male SD rats through their tail veins, followed by taking blood samples from their cervical veins with time. The plasma obtained by centrifugation was diluted with an appropriate amount of water and subjected to three rounds of extraction with t-butyl methyl ether. The ether layer was recovered, dried up, and then dissolved in 50 μL of actonitrile, followed by quantitating paclitaxel using HPLC.

Data set [2] relates to mouse colon cancer Colon 26 cells. Put plainly: In vivo antitumor effect against Colon 26. Particulars: average tumor volume treated/untreated, 11 days after treatment, 30 mg/kg in terms of paclitaxel, tail vein, 5 consecutive days, female CDF1 mice. The method, then:
Female CDF1 mice were inoculated subcutaneously at the back thereof with the mouse colon cancer Colon 26 cells, and, from the point of time when the volume of tumor has reached around 100 mm^3, micellar preparation 10 according to the invention, the micellar composition from Comparative Example, or paclitaxel was administered through the tail veins of the mice for consecutive 5 days to examine effects against advanced cancer. Each agent was used directly, or after dilution with saline before use. The concentration of each agent was expressed in terms of paclitaxel. The antitumor effect of agent was judged on the basis of a percentage of the average tumor volume in treated group to the average tumor volume in untreated group (T/C %) 11 days after agent treatment.

“And” between values parts separate entries of the source, which are not always exact repeats. Identical values can stand only once.

On to `CC(=O)O[C@H]1C(=O)[C@@]2(C)[C@H]([C@H](OC(=O)c3ccccc3)[C@]3(O)C[C@H](OC(=O)[C@H](O)[C@@H](NC(=O)c4ccccc4)c4ccccc4)C(C)=C1C3(C)C)[C@]1(OC(C)=O)CO[C@@H]1C[C@@H]2O` [Paclitaxel, paclitaxel], for which the entries for the “Mice showing extension reflex disappearance” value in the data set on female CDF1 mice and in the data set with female CDF1 mice (listed as paclitaxel alone) were 3/3 and “induced the disappearance of extension reflex in all mice”, respectively. The AUC(0-t) in data set [1] (read-out: AUC (0-360) (converted)) was 1.17 µg·h/mL. Besides, the concentration at 10 min in data set [1] (blood drawing time 10 min) was 1.05 µg/mL. In data set [1] (blood drawing time 30 min), the concentration at 30 min is 0.51 µg/mL. Further, the concentration at 60 min in data set [1] (blood drawing time 60 min) stood at 0.26 µg/mL. The concentration at 120 min in data set [1] (blood drawing time 120 min) worked out at 0.1 µg/mL. Besides, the concentration at 360 min in data set [1] (blood drawing time 360 min) was 0.035 µg/mL. Besides, the “T/C (%)” value in data set [2] is 40.0% and 37.5%; in data set [2] (listed as paclitaxel alone), 37.5% and 40.0%.

The record behind these values is US7820759B2, “Micellar preparation containing sparingly water-soluble anticancer agent and novel block copolymer” (Nippon Kayaku Kabushiki Kaisha, priority 2003, dated 2010).
